# Data from article PMC10606064, “2-Aminothiazole-Flavonoid Hybrid Derivatives Binding to Tau Protein and Responsible for Antitumor Activity in Glioblastoma” (International Journal of Molecular Sciences, 2023).
# Legend:
# [1] = tested on: Caco-2 colon adenocarcinoma cells; experiment: MTT cell viability assay, Caco-2; format: cell-based; settings: Homo sapiens, Caco-2 (not expressing Tau), 72 h, mean ± SEM, read-out: IC50 (metabolic activity)
# Procedure: Cells harvested from sub-confluent monolayers were seeded at 15,000 cells per mL in a 96-well microtiter plate (Cambridge Technology, Labège, France) and cultured for 24 h under standard conditions. Standard medium was then replaced by fresh medium containing no drugs or compounds at different concentrations. The surviving cells were quantified after 72 h by the MTT assay, according to the manufacturer’s instructions. Briefly, 20 µL of 3-(4,5-diMethylThiazol-2-yl)-2,5diphenyl Tetrazolium bromide (MTT) solution at 5 mg.mL^−1 was added to cells for 3 h at 37 °C. The supernatant was discarded and replaced by 100 µL of dimethyl sulfoxide to dissolve formazan crystals. The absorbance was then read at 600 nm by spectrophotometry. For all concentrations of a given compound, cell viability was expressed as the percentage of the ratio between the mean absorbance of treated cells and the mean absorbance of untreated cells. Three independent experiments were performed, and the data were expressed as percentage of survival (using the untreated cells as 100%) and subjected to statistical analysis (n = 3). The IC50 was calculated using the Chou and Talalay method.
# [2] = target: T1, Tau protein (full-length human Tau, hTau40) (Homo sapiens, UniProt P10636); experiment: Tau intrinsic fluorescence quenching, modified Stern–Volmer binding parameters; settings: 5 µM Tau, buffer B pH 6.8, mean ± SD; for Kd: read-out: Equilibrium Binding Constants to Tau, KD
# T1 construct: The full-length human Tau (hTau40) was expressed in a transformed E. coli BL21 (DE3) strain; made in house; host or cells: E. coli BL21 (DE3)
# T1 sequence (P10636 1-441 isoform P10636-8): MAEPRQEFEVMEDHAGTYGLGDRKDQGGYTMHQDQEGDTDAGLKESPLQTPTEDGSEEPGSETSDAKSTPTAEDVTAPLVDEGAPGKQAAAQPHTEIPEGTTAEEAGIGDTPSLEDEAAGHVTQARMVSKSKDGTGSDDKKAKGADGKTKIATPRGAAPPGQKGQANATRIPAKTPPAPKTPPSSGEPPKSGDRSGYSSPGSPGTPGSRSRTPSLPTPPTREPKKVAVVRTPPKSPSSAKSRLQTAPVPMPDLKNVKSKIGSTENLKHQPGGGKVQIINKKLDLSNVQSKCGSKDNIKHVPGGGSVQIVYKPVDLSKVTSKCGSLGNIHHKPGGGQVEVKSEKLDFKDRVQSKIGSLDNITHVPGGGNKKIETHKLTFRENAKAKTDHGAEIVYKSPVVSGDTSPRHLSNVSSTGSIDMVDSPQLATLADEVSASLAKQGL
# Procedure: Fluorescence measurements were performed with a Horiba Jobin Yvon FluoroMax-3 spectrofluorometer. […] For experiments, the excitation wavelength was fixed at 275 nm, and the emission spectra were recorded between 280 nm and 500 nm at room temperature. The inner filter effects were corrected according to Lakowicz as follows:F = Fobs × exp{(Aem + Aex)/2}(2) where Fobs and F are the observed and corrected fluorescence values at the emission wavelength of 303 nm. Aex and Aem are the absorptions at the excitation and emission wavelengths, respectively, calculated with A = ε.l.C, in which ε is the extinction coefficient of Tau, l is the path length of cuvette, and C is Tau concentration.
# The total fluorescence in the absence of quencher (F0) is given by:F0 = F0a + F0b(4) where 0 refers to the fluorescence intensity in the absence of quencher.
# In the presence of quencher, we defined fa as the fraction of the initial fluorescence of Tau accessible to compounds:fa = F0a/(F0a + F0b)(5)
# Therefore, the intensity of the accessible fraction (fa) is decreased according to the Stern–Volmer equation, whereas the buried fraction is not quenched, as given by:F = {F0a/(1 + K.[Q])} + F0b(6)
# Then, subtraction of Equations (6) and (4) yields:ΔF = F0 − F = F0a × {K.[Q]/(1 + K.[Q])}(7)
# At last, inversion of Equation (7) followed by division into Equation (4) yields:F0/ΔF = {1/(fa.K.[Q])} + 1/fa(8)
# We applied this modified form of the Stern–Volmer equation to graphically determine the values of fa and K. For our experiments, we plotted F0/ΔF against 1/[Q], then we determined the fa value at the point of intersection with the y-axis, while the slope represented (faK)^−1.
# [3] = tested on: lactate-dehydrogenase (LDH) of U87 shCTRL and U87 shTau cells; experiment: LDH activity in the medium (necrosis); format: cell-based; settings: both cell types, 24 h treatment
# Procedure: death. (A) The apoptotic protein casp ase 3 (Casp 3) was analy zed by western blot of U87 shCTRL and U87 shTau cells: for each s ample t he ratio between the amount of Casp3 and GAPDH was calculated as relative fold of the reference value (with or without the compound); n = 3 lysates, ns: non-si gnificant. […]
# blot used for quantification. (B) The activity of necrotic LDH protein was analy zed by fluorescence emission in U87 shCTRL (upper panel) and U87 shTau (lower panel) cells. For each s ample, the ratio between LDH florescence was calculated as the percentage of activity against reference value (0,1% Triton); n = 3 lysates; Significant statistical differences were calculated using a non-parametric Mann-Whitney test with **P < 0.01; n.s: non-significant.
# (1 picture or pasted object on this page, not shown here)
# mature Tau aggregates = target: T2, mature Tau aggregates (Homo sapiens, UniProt P10636); experiment: Dissolution of preformed (mature) Tau aggregates, ThS fluorescence; format: biochemical; settings: 10, 30 and 100 µM added to ThS-labelled aggregates after 8 h, 37 °C
# T2 construct: The full-length human Tau (hTau40) was expressed in a transformed E. coli BL21 (DE3) strain; made in house; host or cells: E. coli BL21 (DE3)
# T2 sequence (P10636 1-441 isoform P10636-8): as above
# Procedure: Moreover, we performed a qualitative study of the ability of QCT and compounds 1, 5, and 9 to dissolve preformed Tau aggregates (Figure 3).
# Eight-hour time courses were performed with ThS to monitor heparin-induced Tau aggregation by spectrofluorometry at 520 nm (37 °C), then 10, 30, and 100 µM of compounds (curves b–d) were added to the ThS-labelled Tau aggregates. A control was performed without compound (curve a).
IC50 [1] [µM],"Equilibrium Binding Constants to Tau, fA (Tyr accessible fraction) [2]",Kd [2] [µM],Structure (SMILES),LDH activity [3],Ability to dissolve mature (preformed) Tau aggregates (mature Tau aggregates)
> 100,0.38 ± 0.01,6.4 ± 1.5,Nc1nc2ccc3oc(C(=O)O)cc(=O)c3c2s1 [Compound 5],remained similar to untreated cells,no significant change of ThS fluorescence intensity
> 100,0.14 ± 0.10,4.7 ± 1.8,"Nc1nc2ccc3oc(-c4cccc(Oc5ccccc5)c4)cc(=O)c3c2s1 [Compound 2, 2-amino-7-(3-phenoxyphenyl)-9H-chromeno [6,5-d]thiazol-9-one]",remained similar to untreated cells,able to dissolve mature Tau aggregates
